Oligonucleotides are written 5' to 3', each unit as a sugar letter and its base; * is a phosphorothioate linkage, no mark a phosphodiester; rarer units and linkages stand in square brackets, end groups in braces. Plain capitals give the bases only. {(C18)3CCH2} = lipid of three C18 alkyl chains on a quaternary carbon, linked through CH2-O-phosphodiester; {3LON} = triple hydrocarbon-chain lipid moiety added by triple chain phosphoramidite 4; d = 2'-deoxy (DNA)
How the values were obtained:
[1] = Aggregation behavior of LONs in aqueous media; type: physicochemical
Method: As true surfactants, LONs can self assemble in aqueous media. […] The latter could be HPLC-purified and characterized by MS. […] […] Aqueous samples containing LONs were studied under different conditions including pure water and aqueous suspensions of varying ionic strength and temperature (25-45° C.). All the LONs investigated, namely ^3LON-T15, yielded small spherical objects ranging from approximately 8 to 20 nm in diameter as characterized by DLS, transmission and scanning electronic microscopies (TEM and SEM). […] The micellar architecture of these assemblies can be explained based upon the molecular dimensions of 15 nucleobase-long LONs. Indeed, such molecules are flexible, with cone shape structure and dimensions compatible with the self-aggregation into spherical micelles.

[2] = Size of LON aggregates by DLS, TEM and SEM; type: physicochemical
Method: Transmission Electron Microscopy (TEM). Samples were imaged by negative staining microscopy with a Hitachi H 7650 electron microscope. Samples containing LONs (concentrations and mean sizes are indicated in TEM images) were transferred to a carbon-coated copper grid for ten minutes. The sample was then dried and stained with 2.5% (W/W) of uranyl acetate in water for five minutes.
Scanning Electron Microscopy (SEM). Samples were examined at an accelerating voltage of 10 kV. Typically […] of sample containing the LON aggregates were dried spread on polished stainless steel platelets and then coated with a 6-10 nm layer of gold-palladium alloy under vacuum with a sputter Coater Balzers SCD050. Observations were made with a Philips XL30S FEG instrument.
(§1) As true surfactants, LONs can self assemble in aqueous media. […] The latter could be HPLC-purified and characterized by MS. […] Consequently, dynamic light scattering, transmission electron microscopy and SEM experiments were carried out with the solutions of one purified LON only. Aqueous samples containing LONs were studied under different conditions including pure water and aqueous suspensions of varying ionic strength and temperature (25-45° C.). All the LONs investigated, namely ^3LON-T15, yielded small spherical objects ranging from approximately 8 to 20 nm in diameter as characterized by DLS, transmission and scanning electronic microscopies (TEM and SEM). […] The micellar architecture of these assemblies can be explained based upon the molecular dimensions of 15 nucleobase-long LONs. Indeed, such molecules are flexible, with cone shape structure and dimensions compatible with the self-aggregation into spherical micelles.

[3] = Solubility of LONs in water; type: physicochemical; conditions: adenosine-containing versus thymidine LON
Method: At this point, the crude ^3LON-T15 and ^3LON-A15 behave quite differently. […] The LON eluted after ca. 42 min under these conditions. Fractions containing the LON were pooled and evaporated to dryness. The LON was dissolved in water and dried again two times to remove all residual traces of buffer. Yield of final ^3LON-T15 was excellent (40%).
as §1

TCTP protein = TCTP protein expression by western blot after transfection without Oligofectamine; type: cell-based, human; conditions: PC-3 prostatic cells; absence of Oligofectamine; 30 nM to 100 nM, in particular 100 nM; two or three days after transfection; LASO#Scr negative control
Method: Lipid-conjugated oligonucleotide, LASO#15 was tested on TCTP protein expression using western-blot (LASO#Scr was used as negative control).
(§2) Prostatic cell line were transfected with LASO#15 at various concentrations (from 30 nM to 100 nM), in OptiMEM® medium (Invitrogen), without serum and in the absence of Oligofectamine™ transfection reagent (Invitrogen).
(§3) Serum was added 4 hours after transfection. Two or three days after transfection, the level of TCTP protein expression and GAPDH (used as housekeeping gene) were determined by performing western blotting, and the in vitro growth inhibitory effects of LASO#15 on PC-3 cells were assessed using an MTT assay.
Western Blot analysis was performed as described previously (Rocchi et al., 2004, Cancer Res. 64:6595-602) with 1:2000 rabbit TCTP polyclonal antibody (Abcam Inc., Cambridge, UK). Loading levels were normalized using 1:5000 rabbit anti-glyceraldehyde-3-phosphate dehydrogenase polyclonal (Abcam Inc.).

PC-3 cells = experiment: MTT assay, in vitro growth inhibitory effects; type: cell-based, human; conditions: transfection in the absence of Oligofectamine
Method: The CR prostate cancer cell line PC-3 was purchased from the American Type Culture Collection (Rockville, Md., USA). The cells were maintained in Dulbecco's Modified Eagle's Medium (Invitrogen, Cergy Pontoise, France), supplemented with 10% fetal calf serum (FCS).
as §2, §3
The MTT assay was performed as described previously (Rocchi et al., 2004, Cancer Res. 64:6595-602).

## ^3LON-T15: Triple chain polyT 15mer; dT15 (SEQ ID NO: 33) coupled at its 5′ end with triple chain phosphoramidite 4
[1]; after storage at −20° C.
  aggregation on storage: slow aggregation tendency
[2]; 25-45° C. range
  effect of temperature on aggregate size: poorly affected by temperature
[2]; DLS in water
  sensitivity of aggregate size to ionic strength: poorly sensitive to ionic strength
[2]; DLS, hybridization of the complementary dA15, not observed with ncDNA
  change of micelle core on hybridization: contraction of the core micelle is observed

## ^3LON-A15: Triple chain polyA 15mer; dA15 (SEQ ID NO: 32) coupled at its 5′ end with triple chain phosphoramidite 4 (DNA AAAAAAAAAAAAAAA; DNA, 5' {3LON}, backbone not given here)
[3]
  solubility in water (relative): less soluble in water than their thymidine counterparts
[1]; crude LON
  aggregation after cleavage and deprotection: immediate and irreversible aggregation

## (C18)3CCH2—O—P(═O)(—O[−1])-O-5′-AACTTGTTTCCTGCAGGTGA-3′-OH (antisense {(C18)3CCH2}-dAdAdCdTdTdGdTdTdTdCdCdTdGdCdAdGdGdTdGdA) [LASO#15]
TCTP protein
  TCTP protein expression (western blot): specific inhibition of TCTP protein
PC-3 cells
  growth of PC-3 cells (MTT assay): inhibiting the growth of the PC-3 cells

— patent US9707250B2, “Hydrophobically modified antisense oligonucleotides comprising a triple alkyl chain” (INSTITUT NATIONAL DE LA SANTE ET DE LA RECHERCHE MEDICALE …, priority 2013, dated 2017)
